Structures can show the parent of a compound that is named as a salt.
Biological target: HPK1 (Homo sapiens (Human), UniProt Q92918)
Assay: HPK1 biochemical enzyme assay (microfluidic mobility shift assay)
Settings: 1.5 nM HPK1, ATP 1 mM final, 30 min preincubation, 60 min at RT, Caliper EZ Reader; read-out: HPK1 1000UMATP caliper IC50
Summary of the method: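 Ten-point compound titrations (top 3 μM final) preincubated 30 min with HPK1 and substrate, then reaction started with 1 mM ATP and 1 μM substrate, 5 mM MgCl2. After 60 min at RT, reaction terminated and product measured by microfluidic mobility shift.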

Chain of HPK1 (Q92918 whole entry): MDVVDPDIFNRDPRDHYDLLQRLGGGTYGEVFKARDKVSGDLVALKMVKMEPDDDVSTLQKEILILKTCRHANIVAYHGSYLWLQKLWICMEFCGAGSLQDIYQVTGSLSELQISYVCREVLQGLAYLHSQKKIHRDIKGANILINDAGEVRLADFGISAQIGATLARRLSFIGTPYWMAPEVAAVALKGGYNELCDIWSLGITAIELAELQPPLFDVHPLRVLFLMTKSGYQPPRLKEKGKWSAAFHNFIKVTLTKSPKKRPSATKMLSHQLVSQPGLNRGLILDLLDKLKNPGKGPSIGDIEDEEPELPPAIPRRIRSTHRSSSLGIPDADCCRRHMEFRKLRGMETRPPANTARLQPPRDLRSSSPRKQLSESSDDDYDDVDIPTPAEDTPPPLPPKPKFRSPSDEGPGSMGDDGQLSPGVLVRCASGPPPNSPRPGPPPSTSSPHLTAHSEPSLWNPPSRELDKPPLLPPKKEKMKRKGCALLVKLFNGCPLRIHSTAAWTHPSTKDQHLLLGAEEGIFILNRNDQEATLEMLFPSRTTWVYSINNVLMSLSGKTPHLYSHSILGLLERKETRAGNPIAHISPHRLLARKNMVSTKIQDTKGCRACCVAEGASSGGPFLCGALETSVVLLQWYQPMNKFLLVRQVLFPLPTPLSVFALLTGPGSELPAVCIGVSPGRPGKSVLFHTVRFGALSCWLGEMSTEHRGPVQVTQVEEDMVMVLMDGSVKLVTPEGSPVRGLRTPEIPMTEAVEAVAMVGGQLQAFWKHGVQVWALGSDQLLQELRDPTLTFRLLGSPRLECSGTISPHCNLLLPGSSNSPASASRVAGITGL

SMILES | IC50
Cn1ccc2c(-c3ncc(Nc4cccc(C5(C)CCNCC5)n4)c4c3CNC4=O)ccnc21 [I-430, 4-(1-methyl-1H-pyrrolo[2,3-b]pyridin-4-yl)-7-((6-(4-methylpiperidin-4-yl)pyridin-2-yl)amino)-2,3-dihydro-1H-pyrrolo[3,4-c]pyridin-1-one] | > 1 µM
O=C1NCc2c(-c3cnc4cc(F)ccn34)ccc(Nc3ccc(S(=O)(=O)CC4COC4)cn3)c21 [I-377, 4-(7-fluoroimidazo [1,2-a]pyridin-3-yl)-7-((5-((oxctan-3-ylmethyl)sulf-onyl)pyridin-2-yl)amino)isoin-dolin-1-one] | 0.1 to 1 µM
CN(C)CCc1nc(Nc2cnc(-c3ccnc4c3ccn4C)c3c2C(=O)NC3)ccc1C1CCOC1 (stereo in doubt) [I-807, (R)-7-((6-(2-(dimethylami-no)ethyl)-5-(tetrahydrofuran-3-yl)pyridin-2-yl)amino)-3-(1-methyl-1H-pyrrolo[2,3-b)pyridin-4-yl)-2,3-dihydro-1H-pyrrolo[3,4-c]pyridin-1-one] | < 0.1 µM
CN(C)Cc1nc(Nc2ccc(-c3cnc4cc(F)ccn34)c3c2C(=O)NC3)ccc1N1CCC(C)(O)CC1 [I-535, 7-[[6-[(dimethylamino)-methyl]-5-(4-hydroxy-4-methyl-1-piperidyl)-2-pyridyl]amino]-4-(7-fluoroimidazo [1,2-a]pyridin-3-yl)isoindolin-1-one Formic acid salt] | < 0.1 µM
CN(C)C(C)(C)C1CN(c2ccc(Nc3cnc(-c4ccnc5c4ccn5C)c4c3C(=O)NC4)nc2)CCO1 (stereo not shown) [I-668] | < 0.1 µM
Cc1ccc2c(-c3ccc(Nc4ccc(C5CCOC5)c(CN(C)C)n4)c4c3CNC4=O)cnn2c1 (stereo in doubt) [I-731, (S)-7-((6-((dimethylamino)-methyl)-5-(tetrahydrofuran-3-yl)pyridin-2-yl)amino)-4-(6-methylpyra-zolo[1,5-a]pyridin-3-yl)isoindolin-1-one] | < 0.1 µM
Cn1ccc2c(-c3ccc(Nc4ccc(N5CC6CCC(C5)N6)cn4)c4c3CNC4=O)ccnc21 [I-70, 7-[[5-(3,8-diazabicyc1o [3,2.1]octan-3-yl)-2-pyridyl]amino]-4-(1-methylpyrrolo [2,3-b]pyridin-4-yl)isoindolin-1-one] | < 0.1 µM

Further lines, results first:

IC50 | SMILES
< 0.1 µM | Cc1cccn2c(-c3ncc(Nc4ccc(N5CCC[C@H](C(C)(C)O)C5)cn4)c4c3CNC4=O)cnc12 [I-241, 7-[[5-[(3S)-3-(1-hydroxy-1-methyl-ethyl)-1-piperidyl]-2-pyridyl]-amino]-4-(8-methylimidazo [1,2-a]pyridin-3-yl)-2,3-dihydropyrrolo [3,4-c]pyridin-1-one]
< 0.1 µM | Cn1ccc2c(-c3ccc(Nc4ccc(N5CCC[C@@H](N)C5)cn4)c4c3CNC4=O)ccnc21 [I-95, 7-[[5-[(3R)-3-amino-1-piperipyl]-2-pyridyl]amino]-4-(1-methylpyrrolo [2,3-b]pyridin-4-yl)isoindolin-1-one]
< 0.1 µM | CC1(O)CCN(c2ccc(Nc3ccc(-c4cnc5cc(F)ccn45)c4c3C(=O)NC4)nc2)CC1 [I-397, 4-(7-fluoroimidazo [1,2-a]pyridin-3-yl)-7-((5-(4-hydroxy-4-methylpiperidin-1-yl)pyridin-2-yl)amino)isoin-dolin-1-one]
< 0.1 µM | CN[C@@H]1CCCN(c2ccc(Nc3ccc(-c4ccnc5c4ccn5C)c4c3C(=O)NC4)nc2)C1 [I-100, 7-[[5-[(3R)-3-(methviamino)-1-piperidyl]-2-pyridyl]amino]-4-(1-methylpyrrolo [2,3-b]pyridin-4-yl)isoindolin-1-one]
0.1 to 1 µM | Cn1ccc2c(-c3ccc(Nc4cccc(N5CCC(O)CC5)n4)c4c3CNC4=O)ccnc21 [I-147, 7-[[6-(4-hydroxy-1-piperidyl)-2-pyridyl]amino]-4-(1-methylpyrrolo [2,3-b]pyridin-4-yl)isoindolin-1-one]
< 0.1 µM | Cc1nccn2c(-c3ccc(Nc4ccc(N5CCC(O)CC5)cn4)c4c3CNC4=O)cnc12 [I-158, 7-[[5-(4-hydroxy-1-piperidyl)-2-pyridyl]amino]-4-(8-methylimidazo [1,2-a]pyrazin-3-yl)isoindolin-1-one]
